The text below walks through data of PubChem BioAssay AID220 (DTP/NCI, 2004).

For this test, the system named is CD8F1 mice, subcutaneous mammary adenocarcinoma, T/C%. Briefly: NCI In Vivo Anticancer Drug Screen. Data for tumor model Mammary Adenocarcinoma CD8F1 (subcutaneous) in CD8F1. The settings on record: higher = larger tumour. The protocol: The antitumor activity of compounds was measured in mice bearing transplantable tumors. Survival or tumor size were measured and the results are expressed as the measurement made in the treated group (T) divided by the measurement made in the vehicle treated control group (C). The tumor model used in this assay is Mammary Adenocarcinoma CD8F1 (subcutaneous) in CD8F1

Setting [1] is: endpoint: median tumor weight change, dose: 50.0 mg/kg/injection, schedule: Q01DX001 (ip), vehicle: Klucel (hydroxypropylcellulose) (HPC).
Setting [2] is: endpoint: median tumor weight change, dose: 100.0 mg/kg/injection, schedule: Q01DX001 (ip), vehicle: Klucel (hydroxypropylcellulose) (HPC).
[3] abbreviates: endpoint: median tumor weight (est.), dose: 12.5 mg/kg/injection, schedule: Q07DX005 (ip), vehicle: Klucel (hydroxypropylcellulose) (HPC).
Setting [4] is: endpoint: median tumor weight (est.), dose: 12.5 mg/kg/injection, schedule: Q07DX005 (ip), vehicle: suspension in saline.
Where [5] appears, read: endpoint: median tumor weight (est.), dose: 50.0 mg/kg/injection, schedule: Q07DX005 (ip), vehicle: suspension in saline.
Setting [6] is: endpoint: median tumor weight (est.), dose: 100.0 mg/kg/injection, schedule: Q07DX005 (ip), vehicle: suspension in saline.
Where [7] appears, read: endpoint: median tumor weight change, dose: 62.5 mg/kg/injection, schedule: Q01DX001 (ip), vehicle: saline with Tween-80.
Where [8] appears, read: endpoint: median tumor weight change, dose: 125.0 mg/kg/injection, schedule: Q01DX001 (ip), vehicle: saline with Tween-80.
[9] abbreviates: endpoint: median tumor weight change, dose: 250.0 mg/kg/injection, schedule: Q01DX001 (ip), vehicle: saline with Tween-80.
Setting [10] is: endpoint: median tumor weight (est.), dose: 25.0 mg/kg/injection, schedule: Q07DX005 (ip), vehicle: Klucel (hydroxypropylcellulose) (HPC).
[11] abbreviates: endpoint: median tumor weight (est.), dose: 50.0 mg/kg/injection, schedule: Q07DX005 (ip), vehicle: Klucel (hydroxypropylcellulose) (HPC).

“And” between values parts separate entries of the source, which are not always exact repeats. Equal entries are not always repeated. Results filed as inconclusive are left out.

In the case of `CCC(/C=C/C1OC(=O)C=CC1C)=C\C(C)C/C=C/C(C)=C/C(C)C(=O)C(C)C(O)C(C)C/C(C)=C/C(=O)O` (centres undefined), the T/C is, setting by setting: (endpoint: median tumor weight change, dose: 200.0 mg/kg/injection, schedule: Q01DX001 (ip), vehicle: saline + alcohol) 56 % of control; (endpoint: median tumor weight change, dose: 400.0 mg/kg/injection, schedule: Q01DX001 (ip), vehicle: saline + alcohol) 49 % of control; (endpoint: median tumor weight change, dose: 800.0 mg/kg/injection, schedule: Q01DX001 (ip), vehicle: saline + alcohol) 56 % of control; (endpoint: median tumor weight change, dose: 1600.0 mg/kg/injection, schedule: Q01DX001 (ip), vehicle: saline + alcohol) 75 % of control; (endpoint: median tumor weight change, dose: 3200.0 mg/kg/injection, schedule: Q01DX001 (ip), vehicle: saline + alcohol) 61 % of control.

As to `COC12C(COC(=O)NCCO)C3=C(C(=O)C(C)=C(N)C3=O)N1CC1NC12` (centres undefined), the T/C by setting is: (endpoint: median tumor weight change, dose: 12.5 mg/kg/injection, schedule: Q01DX001 (ip), vehicle: Klucel (hydroxypropylcellulose) (HPC)) 77 % of control; (endpoint: median tumor weight change, dose: 25.0 mg/kg/injection, schedule: Q01DX001 (ip), vehicle: Klucel (hydroxypropylcellulose) (HPC)) 78 % of control; under setting [1], 33 % of control; under setting [2], -64 % of control.

Take `CCCCC(C)(C(=O)OCC)C(=O)OCC`: the T/C by setting is: under setting [3], 94 % of control; (endpoint: median tumor weight (est.), dose: 200.0 mg/kg/injection, schedule: Q07DX005 (ip), vehicle: Klucel (hydroxypropylcellulose) (HPC)) 110 % of control; (endpoint: median tumor weight (est.), dose: 400.0 mg/kg/injection, schedule: Q07DX005 (ip), vehicle: Klucel (hydroxypropylcellulose) (HPC)) 212 % of control.

On to `COC(=O)[C@@H]1c2cc3c(c(O)c2[C@@H](OC)C[C@@]1(C)O)C(=O)c1c(O)cc2c(c1C3=O)OC1O[C@@]2(C)[C@H](O)[C@@H](N(C)C)[C@@H]1O`, for which the T/C under setting [4] is 73 % of control; the T/C under setting [5] is 61 % of control and 66 % of control; the T/C under setting [6] was 151 % of control.

Take `O=C1NC(=O)C2C3C=CC(C12)C1C2C(=O)NC(=O)C2C31` (centres undefined): the T/C was 62 % of control (endpoint: median tumor weight change, dose: 18.0 mg/kg/injection, schedule: Q01DX005 (ip), vehicle: water); 17 % of control (endpoint: median tumor weight change, dose: 30.0 mg/kg/injection, schedule: Q01DX005 (ip), vehicle: water); -5 % of control (endpoint: median tumor weight change, dose: 50.0 mg/kg/injection, schedule: Q01DX005 (ip), vehicle: water); 64 % of control (endpoint: median tumor weight change, dose: 54.0 mg/kg/injection, schedule: Q01DX001 (ip), vehicle: saline); 70 % of control (endpoint: median tumor weight change, dose: 62.0 mg/kg/injection, schedule: Q01DX001 (ip), vehicle: saline with Tween-80); 78 % of control under setting [7]. The T/C runs as follows: (endpoint: median tumor weight change, dose: 90.0 mg/kg/injection, schedule: Q01DX001 (ip), vehicle: saline) 30 % of control; under setting [8], 15 % of control and 27 % of control; under setting [9], -25 % of control.

On to `Cn1c2ccccc2c2ccc3c(c21)C(=O)C=CC3=O`, for which the T/C under setting [7] was 38 % of control.

Consider `CC[C@@]1(O)C[C@H](OC2CC(N(C)C)C(OC3CC(O)C(OC4CCC(=O)C(C)O4)C(C)O3)C(C)O2)c2c(cc3c(c2O)C(=O)c2c(O)cccc2C3=O)[C@H]1C(=O)OC` (some centres undefined), for which the T/C (endpoint: mean tumor weight, dose: 0.75 mg/kg/injection, schedule: Q01DX009 (ip), vehicle: saline) was 108 % of control; the T/C (endpoint: mean tumor weight, dose: 1.5 mg/kg/injection, schedule: Q01DX009 (ip), vehicle: saline) was 75 % of control; the T/C (endpoint: mean tumor weight, dose: 3.0 mg/kg/injection, schedule: Q01DX009 (ip), vehicle: saline) was 35 % of control; the T/C (endpoint: mean tumor weight, dose: 6.0 mg/kg/injection, schedule: Q01DX009 (ip), vehicle: saline) was 5 % of control; the T/C (endpoint: median tumor weight (est.), dose: 2.97 mg/kg/injection, schedule: Q07DX005 (ip), vehicle: water) was 122 % of control; the T/C (endpoint: median tumor weight (est.), dose: 4.45 mg/kg/injection, schedule: Q07DX005 (ip), vehicle: water) was 87 % of control. Also, the T/C runs as follows: (endpoint: median tumor weight (est.), dose: 6.67 mg/kg/injection, schedule: Q07DX005 (ip), vehicle: water) 92 % of control; (endpoint: median tumor weight (est.), dose: 10.0 mg/kg/injection, schedule: Q07DX005 (ip), vehicle: water) 61 % of control; (endpoint: median tumor weight (est.), dose: 15.0 mg/kg/injection, schedule: Q07DX005 (ip), vehicle: water) 11 % of control.

With `Cc1cc(NCCCN(C)C)c2ccc3c(ccc4c(NCCCN(C)C)cc(C)nc43)c2n1`, the T/C runs as follows: (endpoint: median tumor weight change, dose: 3.9 mg/kg/injection, schedule: Q01DX001 (ip), vehicle: saline) 87 % of control; (endpoint: median tumor weight change, dose: 7.81 mg/kg/injection, schedule: Q01DX001 (ip), vehicle: saline) 98 % of control.

As to `CC(Oc1ccccc1-c1ccccc1)C(=O)N(C)C` (centres undefined), the T/C was 70 % of control under setting [8]; 89 % of control under setting [9]; 95 % of control (endpoint: median tumor weight change, dose: 500.0 mg/kg/injection, schedule: Q01DX001 (ip), vehicle: saline with Tween-80).

Take `COc1cc2cc[n+](C)c(Cc3ccccc3)c2cc1OC`: the T/C runs as follows: (endpoint: median tumor weight (est.), dose: 6.25 mg/kg/injection, schedule: Q07DX005 (ip), vehicle: saline with Tween-80) 123 % of control; (endpoint: median tumor weight (est.), dose: 12.5 mg/kg/injection, schedule: Q07DX005 (ip), vehicle: saline with Tween-80) 83 % of control; (endpoint: median tumor weight (est.), dose: 25.0 mg/kg/injection, schedule: Q07DX005 (ip), vehicle: saline with Tween-80) 94 % of control; (endpoint: median tumor weight (est.), dose: 50.0 mg/kg/injection, schedule: Q07DX005 (ip), vehicle: saline with Tween-80) 75 % of control.

With `CN(Cc1cnc2nc(N)nc(N)c2n1)c1c(Cl)cc(C(=O)NC(CCC(=O)O)C(=O)O)cc1Cl` (centres undefined), the T/C reads like this: under setting [10], 72 % of control and 82 % of control; under setting [11], 53 % of control and 65 % of control.

Turning to `CCCCCC[C@H]([C@H](C)O)n1cnc2c(N)ncnc21`, the T/C was 60 % of control under setting [3]; 305 % of control under setting [10]; 206 % of control and 84 % of control under setting [11]; 106 % of control (endpoint: median tumor weight (est.), dose: 100.0 mg/kg/injection, schedule: Q07DX005 (ip), vehicle: Klucel (hydroxypropylcellulose) (HPC)); 68 % of control under setting [1]; 106 % of control under setting [2]. For the same compound, where the note is “endpoint: median tumor weight change, dose: 200.0 mg/kg/injection, schedule: Q01DX001 (ip), vehicle: Klucel (hydroxypropylcellulose) (HPC)”, the T/C was 79 % of control.

Take `CNC(=O)OCc1c(COC(=O)NC)c(-c2ccccc2)n(C)c1-c1ccccc1`: the T/C (endpoint: median tumor weight change, dose: 31.25 mg/kg/injection, schedule: Q01DX001 (ip), vehicle: distilled water + Tween-80) is 54 % of control.

For `CC1CN1C(=O)NCCCCCCNC(=O)N1CC1C` (centres undefined), the T/C was 75 % of control and 86 % of control (endpoint: median tumor weight (est.), dose: 5.0 mg/kg/injection, schedule: Q07DX005 (ip), vehicle: Klucel (hydroxypropylcellulose) (HPC)); 40 % of control and 55 % of control (endpoint: median tumor weight (est.), dose: 10.0 mg/kg/injection, schedule: Q07DX005 (ip), vehicle: Klucel (hydroxypropylcellulose) (HPC)); 6 % of control and 19 % of control (endpoint: median tumor weight (est.), dose: 20.0 mg/kg/injection, schedule: Q07DX005 (ip), vehicle: Klucel (hydroxypropylcellulose) (HPC)).

Take `Nc1ncnc2c1nnn2C1OC(CO)C(O)C1O` (centres undefined): the T/C is 111 % of control (endpoint: median tumor weight change, dose: 62.5 mg/kg/injection, schedule: Q01DX001 (ip), vehicle: Klucel (hydroxypropylcellulose) (HPC)); 39 % of control and 40 % of control (endpoint: median tumor weight change, dose: 250.0 mg/kg/injection, schedule: Q01DX001 (ip), vehicle: Klucel (hydroxypropylcellulose) (HPC)).

For the compound `Oc1ccccc1C=NCCC[N-]CCCN=Cc1ccccc1O.[Co]`, the T/C is, setting by setting: under setting [4], 162 % of control; (endpoint: median tumor weight (est.), dose: 25.0 mg/kg/injection, schedule: Q07DX005 (ip), vehicle: suspension in saline) 223 % of control; under setting [5], 180 % of control; under setting [6], 97 % of control.

For the compound `NC(=O)/C=C/C(=O)c1c(Cl)cccc1Cl`, the T/C reads like this: (endpoint: median tumor weight change, dose: 1.5 mg/kg/injection, schedule: Q01DX001 (ip), vehicle: saline with Tween-80) 110 % of control; (endpoint: median tumor weight change, dose: 3.0 mg/kg/injection, schedule: Q01DX001 (ip), vehicle: saline with Tween-80) 85 % of control; (endpoint: median tumor weight change, dose: 6.0 mg/kg/injection, schedule: Q01DX001 (ip), vehicle: saline with Tween-80) 100 % of control; (endpoint: median tumor weight change, dose: 12.0 mg/kg/injection, schedule: Q01DX001 (ip), vehicle: saline with Tween-80) 90 % of control; (endpoint: median tumor weight change, dose: 12.5 mg/kg/injection, schedule: Q01DX001 (ip), vehicle: saline with Tween-80) 71 % of control; (endpoint: median tumor weight change, dose: 50.0 mg/kg/injection, schedule: Q01DX001 (ip), vehicle: saline with Tween-80) 104 % of control. The T/C (endpoint: median tumor weight change, dose: 100.0 mg/kg/injection, schedule: Q01DX001 (ip), vehicle: saline with Tween-80) was 55 % of control.
